Laboratory results reported in PMC5509420 (Molecular Biology of the Cell, 2017).
Where a chain is given by its changes, count along the chain named.

What was measured:
Sse1 [1] = biological target: T1, Sse1 (Saccharomyces cerevisiae, UniProt P32589, F439L/L433A/M441A/N434P); assay: fluorescence polarization/anisotropy, saturation binding one-site fit
T1 sequence (P32589 2-693 L433A/N434P/F439L/M441A): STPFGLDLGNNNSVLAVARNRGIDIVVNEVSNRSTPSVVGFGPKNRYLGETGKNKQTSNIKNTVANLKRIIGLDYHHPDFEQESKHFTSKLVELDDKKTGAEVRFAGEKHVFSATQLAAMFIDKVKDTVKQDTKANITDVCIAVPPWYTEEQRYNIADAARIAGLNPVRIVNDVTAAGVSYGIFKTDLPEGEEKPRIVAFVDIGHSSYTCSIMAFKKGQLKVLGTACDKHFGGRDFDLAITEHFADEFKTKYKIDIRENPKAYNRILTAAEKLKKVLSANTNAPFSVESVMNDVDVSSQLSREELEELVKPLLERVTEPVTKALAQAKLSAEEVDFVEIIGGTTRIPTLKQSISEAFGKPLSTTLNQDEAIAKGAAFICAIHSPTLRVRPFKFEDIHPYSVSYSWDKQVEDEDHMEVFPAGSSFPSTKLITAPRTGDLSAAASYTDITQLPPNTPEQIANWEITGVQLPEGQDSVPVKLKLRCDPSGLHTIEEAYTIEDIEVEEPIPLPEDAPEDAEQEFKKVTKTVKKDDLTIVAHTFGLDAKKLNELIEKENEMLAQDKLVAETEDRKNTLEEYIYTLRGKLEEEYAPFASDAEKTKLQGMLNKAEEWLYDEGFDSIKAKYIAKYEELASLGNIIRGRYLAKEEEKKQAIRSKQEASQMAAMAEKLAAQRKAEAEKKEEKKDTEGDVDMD

Sse1 [2] = biological target: T2, Sse1 (Saccharomyces cerevisiae, UniProt P32589); assay: as above
T2 sequence (P32589 2-693): T1 sequence (P32589 2-693 L433A/N434P/F439L/M441A) with A432L, P433N, L438F, A440M

Kd (Sse1 [1]): 12.1 ± 1.9 µM
Kd (Sse1 [2]): 8.6 ± 1.4 µM
SMILES: O=C(NCCCCCCNc1ncnc2c1ncn2[C@@H]1O[C@H](COP(=O)(O)OP(=O)(O)OP(=O)(O)O)[C@@H](O)[C@H]1O)c1ccc2c(c1)C(=O)OC21c2ccc(O)cc2Oc2cc(O)ccc21 [N^6-(6-amino)hexyl-ATP-5-FAM]
